Source: patent US20190195897A1, “GLYCOSYLATED METABOLITES” (UNIVERSITEIT LEIDEN, priority 2015, published 2019)

Columns and labels:
[1] = biological target: T1, GBA2 (Mus musculus, UniProt Q69ZF3); experiment: Degradation of GlcChol by GBA2; type: biochemical, murine; details: GBA2, input 18 nmol 4MU-β-Glc hydrolysis per ml/h
T1 construct: Myc-His (C); expressed in transfected cells; host or cells: COS-7 cells, used as homogenate/lysate
T1 sequence (Q69ZF3 1-918): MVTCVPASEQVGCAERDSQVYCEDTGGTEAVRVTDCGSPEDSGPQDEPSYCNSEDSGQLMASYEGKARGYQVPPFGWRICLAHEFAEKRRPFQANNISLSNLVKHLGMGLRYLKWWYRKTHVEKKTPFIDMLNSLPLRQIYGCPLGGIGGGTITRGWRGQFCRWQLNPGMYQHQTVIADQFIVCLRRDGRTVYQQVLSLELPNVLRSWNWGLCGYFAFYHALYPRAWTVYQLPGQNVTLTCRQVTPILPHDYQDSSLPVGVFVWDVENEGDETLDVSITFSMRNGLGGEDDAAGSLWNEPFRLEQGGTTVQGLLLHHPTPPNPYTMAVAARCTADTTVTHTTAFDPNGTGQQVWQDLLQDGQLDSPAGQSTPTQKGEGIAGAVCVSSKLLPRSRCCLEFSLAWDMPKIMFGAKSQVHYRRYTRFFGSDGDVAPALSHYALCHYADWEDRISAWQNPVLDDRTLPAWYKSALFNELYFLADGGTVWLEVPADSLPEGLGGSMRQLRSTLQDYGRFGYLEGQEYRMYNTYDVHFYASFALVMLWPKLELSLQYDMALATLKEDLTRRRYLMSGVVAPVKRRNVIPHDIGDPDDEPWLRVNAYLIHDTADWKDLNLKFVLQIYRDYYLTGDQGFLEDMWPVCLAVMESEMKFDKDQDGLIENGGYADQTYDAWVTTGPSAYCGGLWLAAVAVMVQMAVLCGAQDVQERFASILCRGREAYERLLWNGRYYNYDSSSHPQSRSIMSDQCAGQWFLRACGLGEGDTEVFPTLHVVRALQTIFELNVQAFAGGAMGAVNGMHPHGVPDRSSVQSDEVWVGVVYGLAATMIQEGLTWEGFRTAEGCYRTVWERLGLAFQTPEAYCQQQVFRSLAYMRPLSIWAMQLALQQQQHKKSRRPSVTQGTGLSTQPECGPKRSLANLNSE
Description: Both GBA and GBA2, but not GBA3, are able to degrade by hydrolysis as well as synthesize GlcChol at conditions optimal for degradation of 4MU-8-glucoside (FIG. 1D; supplemental Table 1). […] This ability of the several GBA's to hydrolyze as well as synthesize GlcChol was studied in vitro using 25-NBD-cholesterol as acceptor and detection of 25-NBD-glucoside formation by TLC and fluorescence scanning. As source of enzyme rGBA1 was used and GBA2 and GBA3 were individually overexpressed in COST-cells. Overexpression of enzymes was checked by measuring enzymatic activity with appropriate assays and visualization of enzymes with the broad-specificity β-glucopyranosyl cyclophellitolaziridine-type ABP (38). rGBA1 and lysates of GBA2 and GBA3 overexpressing cells were incubated with natural glucosylceramide (C16:0-GloCer or C18:1-GlcCer) as donors and 25-NBD-cholesterol as acceptor. […]
Homogenates of COS-7 cells overexpressing GBA2 and/or GCS, were analyzed for enzymatic activity of GBA2 using artificial 4MU-Glc substrate as earlier described (38). […] The reaction was terminated by addition of 1.25 mL stop-buffer (0.3 M Glycine/NaOH, pH 10.6) and the released 4MU was measured with a LS55 Fluorescence Spectrometer (Perkin-Elmer, Waltham, Mass., USA).

[2] = biological target: T2, recombinant GBA1 (rGBA1, Cerezyme) (Homo sapiens, UniProt P04062, R534H); experiment: Degradation of GlcChol by rGBA1; type: biochemical
T2 construct: purchased Genzyme (Genzyme Nederland, Naarden, The Netherlands)
T2 sequence (P04062 40-536 R534H): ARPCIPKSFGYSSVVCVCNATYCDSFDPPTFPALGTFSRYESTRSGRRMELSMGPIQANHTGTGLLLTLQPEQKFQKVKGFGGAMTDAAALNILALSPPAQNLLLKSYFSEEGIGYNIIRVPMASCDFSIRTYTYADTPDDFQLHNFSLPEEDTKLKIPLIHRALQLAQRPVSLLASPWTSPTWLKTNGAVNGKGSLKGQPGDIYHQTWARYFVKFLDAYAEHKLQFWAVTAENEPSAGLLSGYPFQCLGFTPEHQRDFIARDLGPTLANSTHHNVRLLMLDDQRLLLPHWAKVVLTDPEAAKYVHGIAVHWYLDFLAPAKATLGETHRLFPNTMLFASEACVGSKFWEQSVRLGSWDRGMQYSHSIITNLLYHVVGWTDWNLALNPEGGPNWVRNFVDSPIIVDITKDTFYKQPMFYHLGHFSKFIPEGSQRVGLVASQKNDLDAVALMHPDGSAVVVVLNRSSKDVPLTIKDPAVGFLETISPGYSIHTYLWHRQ
Procedure: FIG. 1D: Linearity of GlcChol quantification and its complete digestion with rGBAl. (5 IU) for 60 min at 37 C.
The physiological significance of glucosylation of cholesterol is hypothetically great since it renders the molecule far more water soluble. To establish whether GlcChol physiologically occurs in mammals, firstly a LC-MS/MS procedure was developed for its quantitative detection. For this purpose, a ^13C-isotope labeled cholesterolglucoside was synthesized to be used as internal standard in sensitive quantitative detection of GlcChol by LC-MS/MS. The use of the isotope labeled compound as internal standard avoids the need for corrections for extraction efficiency, chromatographic behavior and ionization efficiency, during quantification GlcChol. […] The limit of detection (LOD) was 0.5 pmol/mL plasma, with a signal to noise ratio of 3 and a limit of quantitation (LOQ) of 0.9 pmol/mL plasma with a signal to noise ratio of 10.
Both GBA and GBA2, but not GBA3, are able to degrade by hydrolysis as well as synthesize GlcChol at conditions optimal for degradation of 4MU-8-glucoside (FIG. 1D; supplemental Table 1). […] This ability of the several GBA's to hydrolyze as well as synthesize GlcChol was studied in vitro using 25-NBD-cholesterol as acceptor and detection of 25-NBD-glucoside formation by TLC and fluorescence scanning. […]

Percentage digestion GlcChol after 1 h (10 nmole) [1]: 83%
substrate for recombinant GBA1 ([2]; even at sub-optimal conditions (absence of Triton-X-100 and sodium taurocholate)): excellent substrate
Percentage digestion GlcChol after 1 h (10 nmole) ([2]; rGBA1, input 15 nmol 4MU-β-Glc hydrolysis per ml/h): 95%
SMILES: CC(C)CCC[C@@H](C)[C@H]1CC[C@H]2[C@@H]3CC=C4C[C@@H](O[C@@H]5O[C@H](CO)[C@@H](O)[C@H](O)[C@H]5O)CC[C@]4(C)[C@H]3CC[C@]12C [GlcChol, 1-O-cholesteryl-β-D-glucopyranoside]
